According to BigSolDB 2.1:

COc1cc(C2Oc3cc(C4Oc5cc(O)cc(O)c5C(=O)C4O)ccc3OC2CO)ccc1O (stereo not given)
Conditions | solubility (mole fraction)
in PEG-400, 298.15 K | 0.24
in PEG-400, 303.15 K | 0.26
in PEG-400, 313.15 K | 0.29
in PEG-400, 323.15 K | 0.34
in PEG-400, 333.15 K | 0.38

solubility (mole fraction)
Conditions | 298.15 K | 303.15 K | 313.15 K | 323.15 K | 333.15 K
in ethanol | 0.0167 | 0.0174 | 0.0193 | 0.0208 | 0.0227
in isopropanol | 0.00448 | 0.00477 | 0.00524 | 0.00593 | 0.00662
in water | 1.46e-05 | 1.68e-05 | 2.09e-05 | 2.54e-05 | 3.06e-05
